Source: US20170202932A1, “METHODS FOR INHIBITING NEURON APOPTOSIS AND NECROSIS” (NEWSOUTH INNOVATIONS PTY LIMITED, priority 2012, published 2017)

Tests used:
[1] = target: T1, recombinant mouse TRPC3c channels (Mus musculus, UniProt Q9QZC1, DEL811-838); test: Whole-cell patch clamp of CCh-activated current, HEK293 cells expressing TRPC3c; assay type: cell-based; conditions: TRPC3c+CCh (100 μM)+genistein 200 μM pre-incubation; Vh=−50 mV; n=7; CCh alone −809.4±36.9 pA
T1 construct: expressed in transfected cells; host or cells: HEK293 cells, stably transfected (pIRES-DsRed2 vector)
T1 sequence (Q9QZC1 with tags, fused parts or gaps DEL811-838): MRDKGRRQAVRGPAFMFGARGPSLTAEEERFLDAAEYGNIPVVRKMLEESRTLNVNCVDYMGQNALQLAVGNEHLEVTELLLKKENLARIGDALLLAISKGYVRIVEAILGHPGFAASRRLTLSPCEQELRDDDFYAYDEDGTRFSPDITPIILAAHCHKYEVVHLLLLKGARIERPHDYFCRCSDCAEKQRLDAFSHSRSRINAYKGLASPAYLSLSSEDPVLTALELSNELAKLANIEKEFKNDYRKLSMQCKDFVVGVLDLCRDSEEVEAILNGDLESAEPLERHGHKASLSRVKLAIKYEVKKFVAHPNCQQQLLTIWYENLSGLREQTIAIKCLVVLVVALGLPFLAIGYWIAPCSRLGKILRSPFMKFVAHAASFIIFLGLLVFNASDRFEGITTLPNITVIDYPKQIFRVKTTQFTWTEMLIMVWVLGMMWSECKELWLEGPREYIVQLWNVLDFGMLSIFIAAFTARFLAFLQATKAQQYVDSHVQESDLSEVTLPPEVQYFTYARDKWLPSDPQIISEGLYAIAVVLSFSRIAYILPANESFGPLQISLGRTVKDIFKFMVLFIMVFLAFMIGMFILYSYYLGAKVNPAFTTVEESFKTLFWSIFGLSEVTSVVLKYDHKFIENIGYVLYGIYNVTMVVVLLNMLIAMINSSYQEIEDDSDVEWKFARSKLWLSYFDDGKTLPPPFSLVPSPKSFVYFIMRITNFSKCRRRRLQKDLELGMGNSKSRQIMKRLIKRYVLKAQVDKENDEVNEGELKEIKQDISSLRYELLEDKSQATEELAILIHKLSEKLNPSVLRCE
Procedure: For whole cell patch clamp recordings, HEK293 cells stably expressing recombinant TRPC3 ion channels were grown to 85-95% confluence on a coverslip coated with poly-D-lysine and collagen (both from Sigma-Aldrich, U.S.A.). Recording pipettes were made from borosilicate glass (GC120TF-10, Harvard Apparatus, U.K.). The pipette resistance was at 3-6 MΩ (PC-10, Narishige, Japan). The internal solution had the composition: 130 mM CsCl, 2 mM MgCl2, 10 mM EGTA, 0.3 mM ATP, 0.03 mM GTP, pH at 7.3 adjusted with CsOH. Cells on the coverslip were placed in a microchamber on an inverted microscope (Leica DMIL, Germany) and superfused with HEPES-buffered physiological salt solution (HPSS) containing 120 mM NaCl, 5.4 mM KCl, 2 mM CaCl2, 1.13 mM MgCl2, 10 mM glucose, 20 mM HEPES (pH 7.4) at room temperature.
Whole cell patch clamp recordings were made following a gigaseal, using an Axopatch 200 patch clamp amplifier (Molecular Devices, U.S.A.) controlled by software (pClamp 10.2, Molecular Devices, U.S.A.). Cell capacitance was cancelled and series resistance was compensated by ˜90%. […] Carbachol (used to activate TRPC3 channels via the endogenously expressed M3 AChR) was purchased from Sigma-Aldrich (U.S.A.). DHPG (—(S)-2-amino-2-(3,5-dihydroxyphenyl)acetic acid), a group I mGluR agonist (Schoepp et al. 1994), was purchased from Tocris Bioscience (U.K.). […]

[2] = target: T1, recombinant mouse TRPC3c channels; test: Fluo-4 Ca2+ imaging of DHPG-activated Ca2+ entry, HEK293 cells co-expressing TRPC3c and mGluR1; assay type: cell-based; conditions: genistein 200 μM pre-application, n=6, without genistein 2.71±0.217
Procedure: The TRPC3-mediated Ca^2+ entry through two distinct activation pathways was assessed by microfluorometric Ca^2+ imaging: i) Ca^2+ entry via the M3 receptor-PLCB-DAG pathway endogenous to HEK293 cells, using Indo-1 as a Ca^2+ indicator; and ii) Ca^2+ entry via mGluR1-PLCB-DAG through co-expression of the mGluR1, using Fluo-4 as a Ca^2+ indicator.
Cells were grown in DMEM media on 18 mm circular coverslips coated with poly-D-lysine (25 μg/ml) and collagen (25 μg/ml) at 1:1 ratio. The cells were washed with HPSS. The coverslips were then incubated with HPSS and 0.1% pluronic acid, along with either 1 μM Indo-1AM or Fluo-4AM Ca^2+ indicator (Invitrogen, U.S.A.) for an hour prior to the experiment. […]
For Fluo-4 experiments, the cells were mounted on an inverted microscope (DMIL, Leica) with a 20× 0.4NA objective (Leica HCX PL Fluotar), and illuminated with a mercury lamp using a GFP filter (part no. 11504164; excitation 470/40 nm, dichroic 500 nm, emission 525/50 nm) every 5 seconds (Andor iXon+ 885 EMCCD Camera, Ireland) with a gated shutter (Ludl Electronic Products, U.S.A.), controlled via Andor IQ (v1.8.1) software. The images were then analysed using Image J software (NIH, U.S.A.) with individual regions of interest (ROIs) identified for HEK293 cells responding to M3 or mGluR1 agonists with increased Ca^2+ signal. […]

- mean peak CCh-activated whole-cell inward current [1]: −35.4±8.1 pA
- Fluo-4 fluorescence F/F0 (TRPC3-mediated Ca2+ entry after DHPG) [2]: 0.876±0.0621
SMILES: O=c1c(-c2ccc(O)cc2)coc2cc(O)cc(O)c12 [genistein, 4′, 5,7-trihydroxyisoflavone]
